Peptide text beside a SMILES is read from it.
Assays:
[1] = KSL-W release profiles by dialysis; type: physicochemical; conditions: free peptide, within the first 6 h of dialysis
Description: Each membrane cartridge was placed into 40 mL of water at 37° C. with gentle rocking (VWR brand incubating rocker, 50 Hz/15°). […] The amount of KSL-W remaining in each cartridge was evaluated at each time point using HPLC.

[2] = test system: Staphylococcus aureus UAMS-1; type: cell-based
Description: The minimum inhibitory concentrations (MIC) KSL-W and its nanocomplexes were measured using the Clinical Laboratory Standards Institute (CLSI) broth microdilution method. Briefly, two-fold serial dilutions of free or complexed KSL-W solutions were prepared in THB medium at a volume of 200 µL/well in flat-bottom 96-well tissue culture plates (BD Biosciences). Hundred microliter of Staphylococcus aureus UAMS-1 (10^6 CFU/mL) was then added to each well. Plates were incubated overnight at 37° C. and then assessed by turbidity (absorbance at 600 nm). The concentration at which no turbidity was observed was considered the MIC. Each assay was reproduced in triplicate.

in vitro = conditions: human, plasma, half-life of the peptide, 50% human plasma
Description: Aqueous solutions of the peptide:polymer complexes with various peptide:[…], were combined 1:1 v/v with human plasma sodium heparin anticoagulated, Biological Specialty Corporation) and placed in a 37° C. incubator. Fifty microliter aliquots of this mixture were injected at 1 h intervals onto a Prosphere HP C18-300 column, 250×4.6 mm ((Grace) mounted on a Waters HPLC system. The injection was loaded onto the column and equilibrated using a 90%/10%/0.1% water/acetonitrile/trifluoroacetic acid mobile phase and then eluted using a continuous gradient up to 70% acetonitrile. Integration of the KSL-W absorbance peak at 280 nm was used to determine peptide concentration in each sample. Every sample was run in parallel with a free-drug control at the same concentration.

[3] = KSL-W binding efficiency by ultrafiltration; type: physicochemical; conditions: free peptide, 10 kDa MWCO ultrafiltration
Description: Efficiency of binding for each polymer-drug complex was determined using ultrafiltration. Ultrafiltration cartridges with 10 k MWCO (Amicon Microcon Ultrafiltration Filters) were used according to manufacturer's instructions. […] The KSL-W content of filtrate and retentate were determined using HPLC as described above.

| Molecule | release through 8-10 kDa dialysis membrane [1] | MIC (S. aureus UAMS-1) ([2]; UAMS-1) | MIC ratio (complexed/free) ([2]; free peptide, charge ratio NA) | half-life (in vitro; initial KSL-W concentration between 33 and 72 μg/mL) | half-life (in vitro; initial concentration between 13:2 and 330) | efficiency of passing through the membrane [3] | MIC ([2]; same S. aureus strain and conditions) |
| --- | --- | --- | --- | --- | --- | --- | --- |
| CC(C)[C@H](NC(=O)[C@H](Cc1c[nH]c2ccccc12)NC(=O)[C@H](Cc1ccccc1)NC(=O)[C@@H](NC(=O)[C@@H](NC(=O)[C@H](CCCCN)NC(=O)[C@@H](N)CCCCN)C(C)C)C(C)C)C(=O)N[C@@H](CCCCN)C(=O)N[C@@H](Cc1ccccc1)C(=O)N[C@@H](CCCCN)C(N)=O [KSL-W] (H-KKVVFWVKFK-NH2; N-terminus and C-terminus assumed) | over 95% | 62 to 153 µg/mL | 1 | 4 h | 1 h | over 95% |  |
| gentamicin |  |  |  |  |  |  | < 3100 µg/mL |
